# Paper PMC6009875, “Structure–activity relationships of fraxamoside as an unusual xanthine oxidase inhibitor” (Journal of Enzyme Inhibition and Medicinal Chemistry, 2017)
# Where two headings read alike, the source gives them in different places.
# What was measured:
# [1] = molecular target: T1, Xanthine oxidase from bovine milk (Bos taurus, UniProt P80457); assay: XO inhibition kinetics (Lineweaver-Burk, Ki); type: biochemical; conditions: for Inhibition mode: Lineweaver-Burk plots
# T1 construct: Xanthine oxidase from bovine milk (0.2 U/mg); purchased Sigma-Aldrich (St. Louis, MO); host or cells: bovine milk
# T1 sequence (P80457 whole entry): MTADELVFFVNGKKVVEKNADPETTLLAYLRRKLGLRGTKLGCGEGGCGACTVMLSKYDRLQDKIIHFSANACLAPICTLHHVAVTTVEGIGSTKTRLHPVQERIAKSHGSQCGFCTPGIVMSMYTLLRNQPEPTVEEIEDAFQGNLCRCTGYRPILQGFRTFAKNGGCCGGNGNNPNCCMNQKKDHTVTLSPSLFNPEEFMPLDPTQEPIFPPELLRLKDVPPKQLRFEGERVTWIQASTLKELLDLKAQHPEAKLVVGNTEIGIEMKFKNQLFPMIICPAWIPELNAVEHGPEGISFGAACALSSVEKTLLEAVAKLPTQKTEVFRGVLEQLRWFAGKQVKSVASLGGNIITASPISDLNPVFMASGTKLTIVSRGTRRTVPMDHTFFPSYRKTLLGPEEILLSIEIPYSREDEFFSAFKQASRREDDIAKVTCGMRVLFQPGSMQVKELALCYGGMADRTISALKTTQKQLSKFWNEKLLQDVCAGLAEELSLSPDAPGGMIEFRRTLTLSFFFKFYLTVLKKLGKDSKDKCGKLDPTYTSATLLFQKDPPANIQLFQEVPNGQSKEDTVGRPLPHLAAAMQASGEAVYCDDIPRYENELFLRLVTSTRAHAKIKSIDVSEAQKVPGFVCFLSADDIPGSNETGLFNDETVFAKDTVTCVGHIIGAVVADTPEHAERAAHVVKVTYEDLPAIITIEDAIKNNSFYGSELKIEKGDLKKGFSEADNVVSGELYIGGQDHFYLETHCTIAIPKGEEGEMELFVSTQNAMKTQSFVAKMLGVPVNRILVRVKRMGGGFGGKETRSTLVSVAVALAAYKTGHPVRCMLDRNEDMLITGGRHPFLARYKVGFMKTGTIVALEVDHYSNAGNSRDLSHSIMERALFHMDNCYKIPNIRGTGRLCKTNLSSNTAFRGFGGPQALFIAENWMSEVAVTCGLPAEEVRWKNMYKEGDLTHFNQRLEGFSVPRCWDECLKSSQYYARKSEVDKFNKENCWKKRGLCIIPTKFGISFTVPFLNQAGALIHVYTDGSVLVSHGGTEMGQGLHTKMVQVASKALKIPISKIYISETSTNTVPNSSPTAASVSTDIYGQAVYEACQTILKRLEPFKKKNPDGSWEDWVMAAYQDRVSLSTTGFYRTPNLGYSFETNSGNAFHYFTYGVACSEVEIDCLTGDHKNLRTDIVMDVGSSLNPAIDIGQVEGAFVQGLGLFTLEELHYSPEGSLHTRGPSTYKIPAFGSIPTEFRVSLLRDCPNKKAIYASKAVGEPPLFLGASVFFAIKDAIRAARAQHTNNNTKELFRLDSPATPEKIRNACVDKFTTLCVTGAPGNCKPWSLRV
# Method: The assay was carried out in a 500-μL final volume buffer A, constituted by 50 mM phosphate buffer, pH 7.8, 0.1 mM EDTA, supplemented with increasing concentration of xanthine as substrate in the absence or in the presence of variable amounts of the selected inhibitor. The assay was initiated by adding 10 μL of 160 U/L XO solution to the reaction mixture, without or with inhibitors, and it was followed in kinetics by reading the absorbance up to 2 min at 20 °C, thus calculating the rate of acid uric formation in the linear range of the reaction. The kinetic parameters of the XO reaction were derived from Lineweaver–Burk plots obtained measuring the rate of uric acid formation at different xanthine concentration (ranging between 0.4 and10 μM). Inhibition studies were carried out by measuring the kinetic parameters in the presence of different inhibitors. […] Km/Ki + Km.
# The kinetic parameters of XO were determined by Lineweaver–Burk plot using a standard curve-fitting program. At each single concentration of substrate, the activity was evaluated in triplicate. […] Correlation and regression analyses and statistical analysis were made with Student’s t-test, using the software KaleidaGraph (Reading, PA). p values lower than 0.05 were considered to be significant.
# [2] = molecular target: T1, Xanthine oxidase from bovine milk; assay: XO activity assay (IC50, uric acid formation at 295 nm); type: biochemical; conditions: total absence of methanol; 50 μM xanthine, pH 7.8, 20 °C
# Method: The assay was carried out in a 500 μL final volume reaction mixture, containing 50 mM phosphate buffer, pH 7.8, 0.1 mM EDTA, 50 μM xanthine as substrate, 3.2 U/L XO, and different amounts of each compound as potential XO inhibitor. The assay was started by adding 10 μL of the enzyme stock solution to the reaction mixture and followed by reading the absorbance up to 2 min at 20 °C, thus calculating the corresponding rate in the linear range of the reaction. For each sample, the extent of the inhibitory effect (i) was calculated as i = (V0 – Vi)/V0 where V0 and Vi are respectively the rate measured in the absence or presence at least six different amounts of the compounds used [I], whose range of concentration was properly chosen.
# XO [3] = molecular target: XO; design: method as in Flemmig et al.[52]; conditions: ref Flemmig et al.[52], cited from earlier work
# XO [4] = test system: XO; design: method as in PMID 25102361; conditions: read-out: IC50 (XO inhibitory effect); cited from earlier work
structure (smiles),measurement,setting,value
"Oc1ncnc2[nH]ncc12 [Allopurinol, allopurinol, reference compound]",Inhibition mode,[1],competitive inhibition mode
"OCCc1ccc(O)c(O)c1 [Compound 4, hydroxytyrosol]",IC50,[2],1130 ± 22 µM
same,Ki,XO [3],No inhibition^a
O=c1c(O)c(-c2ccc(O)c(O)c2)oc2cc(O)cc(O)c12 [quercetin],IC50,XO [4],1.9 µM
"C/C=C1/[C@H](O[C@@H]2O[C@H](CO)[C@@H](O)[C@H](O)[C@H]2O)OC=C(C(=O)OC)[C@H]1CC(=O)OCCc1ccc(O)c(O)c1 [Compound 2, oleuropein]",IC50,[2],335 ± 17 µM
same,Inhibition mode,XO [3],Competitive^a
same,Inhibition mode,XO [3]; listed as oleuropein,competitive inhibition mode
same,Ki,XO [3]; read-out: Ki,53 µM
"C/C=C1/[C@H](O[C@@H]2O[C@H](CO)[C@@H](O)[C@H](O)[C@H]2O)OC=C(C(=O)OC)[C@H]1CC(=O)O [Compound 3, oleoside 11-methyl ester]",IC50,[2],259 ± 13 µM
O=c1c(O[C@@H]2O[C@H](CO)[C@@H](O)[C@H](O)[C@H]2O)c(-c2ccc(O)c(O)c2)oc2cc(O)cc(O)c12 [quercetin 3-O-glucoside],IC50,XO [4],54.6 µM
"C/C=C1/[C@H]2OC=C(C(=O)OC)[C@H]1CC(=O)OC[C@@H](c1ccc(O)c(O)c1)OC[C@H]1O[C@@H](O2)[C@H](O)[C@@H](O)[C@@H]1O [Compound 1, fraxamoside]",Inhibition mode,[1],Competitive
same,Inhibition mode,[1]; listed as fraxamoside,competitively inhibited
same,Ki lower than that of oleuropein (fold),[1]; fraxamoside Ki versus oleuropein Ki,at least 50 times
same,Ki,"[1]; secondary plot of K'm versus [I], xanthine 0.4-10 μM, pH 7.8, 20 °C",900 ± 250 nM
same,IC50,[2],16.1 ± 0.7 µM
